Experimental data from patent publication US20190124928A1, “ENHANCED HERBICIDAL COMPOSITIONS OF TRANSITION METAL CHELATES” (W. Neudorff GMBH KG, priority 2016, published 2019).

Legend:
[1] = test system: white clover; experiment: Example 5 greenhouse white clover and turf test, white clover damage; format: in vivo, Trifolium repens; conditions: sprayed twice at 100 ml/m^2, seven days after first spraying
Protocol: (§1) Unless otherwise specified, all of the iron solutions were made using the same molar concentration of iron ion as chelating agent. In the liquid formulations samples were prepared by diluting a metal chelate, iron HEDTA (Neu 1173H) or iron EDTA to the desired level of iron as specified using stirring. Neu 1173H contains the stabilizer sodium citrate at 1.5% prior to dilution. Dilutions of iron HEDTA to the level of 0.25% Fe incorporate 0.08% sodium citrate into the spray solutions. KCl was then diluted and added to the diluted metal chelate.
(§2) In the dry formulations, the iron chelate was simply blended with KCl and with other fertilizer ingredients. Samples were usually prepared within 48 hours of treatment. All of the outside tests were done on areas of grass and white clover that were at least 2 months old. For the greenhouse tests, white clover and dandelion were grown in a commercial greenhouse mix using supplemental lighting and heating. Each plant was grown in a 2¼ inch pot to a minimum diameter of 15-20 cm. Perennial ryegrass was grown in 2¼ inch pots in the same greenhouse conditions as above and they are at least 4 weeks old at the time of application. […]
(§3) All plant damage was visually assessed using a percentage rating scale from 0 (no injury) to 100% (death). […] Percentage control was calculated from the respective weed cover data (e.g. preferably using the Henderson & Tilton formula). […]

[2] = test system: perennial ryegrass; experiment: Example 5 greenhouse white clover and turf test, grass damage; format: in vivo, Lolium perenne; conditions: sprayed twice at 100 ml/m^2, seven days after first spraying
Protocol: as §1, §2, §3

[3] = test system: dandelion; experiment: Example 10 greenhouse dandelion and turf test with sodium sulfate, dandelion damage; format: in vivo, Taraxacum officinale; conditions: sprayed once at 200 ml/m^2, six days after first spraying
Protocol: as §1, §2, §3

[4] = test system: perennial ryegrass; experiment: Example 10 greenhouse dandelion and turf test with sodium sulfate, grass damage; format: in vivo, Lolium perenne; conditions: sprayed once at 200 ml/m^2, six days after first spraying
Protocol: as §1, §2, §3

| Compound | White Clover Damage (%) [1] | Grass Damage (%) [2] | Dandelion damage (%) [3] | Grass Damage (%) [4] |
| --- | --- | --- | --- | --- |
| [Cl-].[K+] [KCl 2%, potassium chloride] | 0% | 0% | – | – |
| O=S(=O)([O-])[O-].[Na+].[Na+] [Na2SO4 2%, sodium sulfate] | – | – | 0% | 4% |
